# Values joined by “and” are separate entries in the source; they are usually repeats but may differ in a detail not shown here. Identical values can stand only once. “Also recorded” adds a separate entry of the source.
# Columns and labels:
# Assay type in all cases: in vivo, human
# [1] = pSMAD2:SMAD2 ratio in BAL and plasma Cmax in healthy subjects; details: male, human, plasma, 40 mg/day, after the dose on Day 7, subjects of FIG. 8A-8F; read-out: Cmax (peak of the blood plasma concentration)
# Procedure: (§1) In order to evaluate the change of pSMAD2 as a biomarker of TGF-β activity following administration of an integrin inhibitor, and to determine a therapeutically effective dosage and an effective blood plasma Cmax of the integrin inhibitor, healthy subjects were administered Compound 5, a dual selective αVβ6/αVβ1-integrin inhibitor, and the corresponding Cmax levels and decrease in phosphorylation levels and were determined.
# (§2) Healthy non-smoking adult males without history of lung disease were selected as subjects and were randomized into 4 cohorts. Broncoalevaolar lavage samples were obtained from all subjects 1 day prior to start of treatment. Cohorts 1 and 2 were administered 20 mg of a compound daily, wherein 3 subjects were administered the dual selective αVβ6/αVβ1-integrin inhibitor (Compound 5) per every 1 subject receiving a placebo compound. Cohorts 3 and 4 were administered 40 mg of a compound daily, wherein 3 subjects were administered the dual selective αVβ6/αVβ1-integrin inhibitor (Compound 5) per every 1 subject receiving a placebo compound. BAL samples and blood samples were taken from all subjects on Day −1 (baseline) and on Day 7 (end of treatment).
# [2] = system: pSMAD2:SMAD2 ratio in BAL; assay: as above
# Procedure: as §1, §2
# [3] = system: participants with idiopathic pulmonary fibrosis (IPF); assay: Phase 2a clinical trial: patient-reported cough severity visual analog scale (VAS); details: 320 mg, weeks 12 and 24, ITT; worsening on placebo
# Procedure: Of interest, patients receiving Compound 5 experienced a positive impact on cough severity, while cough severity in patients receiving placebo worsened over time. […] The data histograms from left to right are 320 mg Compound 5 treatment at week 12, 320 mg Compound 5 treatment at week 24, placebo treatment at week 12, and placebo treatment at week 24. […] Cough VAS measured patient reported cough severity over last 2 weeks on scale of 0-100 mm.
# [4] = 40 mg/day, after the dose on Day 7, subjects of FIG. 8A-8F
compound,measurement,setting,value
"COCCN(CCCCc1ccc2c(n1)NCCC2)CC[C@H](Nc1ncnc2ccccc12)C(=O)O [Compound 5, (S)-4-((2-methoxyethyl) (4-(5,6,7,8-tetrahydro-1,8-naphthyridin-2-yl)butyl)amino)-2-(quinazolin-4-ylamino) butanoic acid]",Cmax,[1],> 900 ng/mL
same,Cmax (peak of the blood plasma concentration),[2]; [4],700 to 900 ng/mL and < 700 ng/mL
same,PD effect (relative change in pSMAD2:SMAD2 ratio from baseline in BAL),[2]; [4],sustained PD effect; also recorded: transitory PD effect; also recorded: no PD effect
same,correlation of plasma Cmax with reduction of pSMAD2:SMAD2 ratio relative to baseline,[2]; 12 h and 24 h post-administration on Day 7,strongly correlated
same,"Patient-reported cough severity (VAS), change from baseline",[3],reduced
